Columns and labels:
human SGLT1 = target: T1, human SGLT1 (Homo sapiens, UniProt P13866); experiment: 14C-AMG uptake assay, human SGLT1 in CHO-K1 cells; assay type: cell-based
T1 sequence (P13866 1-664): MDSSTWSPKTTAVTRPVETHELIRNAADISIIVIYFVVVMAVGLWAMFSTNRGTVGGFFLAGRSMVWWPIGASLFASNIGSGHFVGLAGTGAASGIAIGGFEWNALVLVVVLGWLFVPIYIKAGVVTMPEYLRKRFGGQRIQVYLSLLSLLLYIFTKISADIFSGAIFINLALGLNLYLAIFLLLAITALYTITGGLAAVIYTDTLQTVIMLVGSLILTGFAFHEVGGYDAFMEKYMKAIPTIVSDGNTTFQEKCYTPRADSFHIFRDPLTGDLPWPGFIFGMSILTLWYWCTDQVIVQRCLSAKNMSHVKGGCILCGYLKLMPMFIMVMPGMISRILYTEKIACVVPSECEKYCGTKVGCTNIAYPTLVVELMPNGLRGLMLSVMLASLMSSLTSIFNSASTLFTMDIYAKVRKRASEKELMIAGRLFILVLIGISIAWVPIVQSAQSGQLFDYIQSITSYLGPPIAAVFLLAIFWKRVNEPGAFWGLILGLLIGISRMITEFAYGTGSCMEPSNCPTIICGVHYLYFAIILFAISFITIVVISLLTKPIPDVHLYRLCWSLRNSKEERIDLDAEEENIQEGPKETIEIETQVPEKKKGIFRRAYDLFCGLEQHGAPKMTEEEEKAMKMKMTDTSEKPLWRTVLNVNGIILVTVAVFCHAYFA
Description: (§1) The cDNA encoding human SGLT1 (slc5a1, NM_000343), human SGLT2 (slc5a2, NM_003041) and mouse SGLT1 (slc5a1, NM_019810.4) are purchased from Openbiosystems, Invitrogen and Openbiosystems, respectively. The cDNA is cloned into pcDNA3.1+ for mammalian expression and is stably transfected into Chinese hamster ovary (CHO)-K1 cells using standard mammalian transfection procedures. An SGLT-expressing sub-clone of each over-expressing cell line is selected based on resistance to neomycin (Geneticin, Invitrogen) and activity in the ^14C-α-methyl-D-glucopyranoside (^14C-AMG) uptake assay (see below). Stable SGLT-expressing cells are maintained using standard cell culture techniques.
(§2) The SGLT activity is measured as sodium-dependent ^14C-AMG uptake in the above cell lines described as follows. One hundred μL of culture medium containing 30,000 cells are seeded to each well of a 96-well BioCoat poly-D-lysine plate (Becton Dickson) and cultured at 37° C. overnight. The culture medium is aspirated and cells are washed twice with 200 μL of Reaction Buffer (140 mM NaCl, 2 mM KCl, 1 mM CaCl2, MgCl2, and 14 mM N-2-hydroethylpiperrazine-N′-2-ethanesulfonic acid (Hepes), pH 7.5). The excess buffer is tapped out onto paper towels. Thirty-five μL of Reaction Buffer are added to each well. […] After mixing, the scintillation signal in the plate is counted in a MicroBeta (PerkinElmer). […]

human SGLT2 = target: T2, human SGLT2 (Homo sapiens, UniProt P31639); experiment: 14C-AMG uptake assay, human SGLT2 in CHO-K1 cells; assay type: cell-based; conditions: sodium-dependent 14C-AMG uptake, n = 5
T2 sequence (P31639 1-672): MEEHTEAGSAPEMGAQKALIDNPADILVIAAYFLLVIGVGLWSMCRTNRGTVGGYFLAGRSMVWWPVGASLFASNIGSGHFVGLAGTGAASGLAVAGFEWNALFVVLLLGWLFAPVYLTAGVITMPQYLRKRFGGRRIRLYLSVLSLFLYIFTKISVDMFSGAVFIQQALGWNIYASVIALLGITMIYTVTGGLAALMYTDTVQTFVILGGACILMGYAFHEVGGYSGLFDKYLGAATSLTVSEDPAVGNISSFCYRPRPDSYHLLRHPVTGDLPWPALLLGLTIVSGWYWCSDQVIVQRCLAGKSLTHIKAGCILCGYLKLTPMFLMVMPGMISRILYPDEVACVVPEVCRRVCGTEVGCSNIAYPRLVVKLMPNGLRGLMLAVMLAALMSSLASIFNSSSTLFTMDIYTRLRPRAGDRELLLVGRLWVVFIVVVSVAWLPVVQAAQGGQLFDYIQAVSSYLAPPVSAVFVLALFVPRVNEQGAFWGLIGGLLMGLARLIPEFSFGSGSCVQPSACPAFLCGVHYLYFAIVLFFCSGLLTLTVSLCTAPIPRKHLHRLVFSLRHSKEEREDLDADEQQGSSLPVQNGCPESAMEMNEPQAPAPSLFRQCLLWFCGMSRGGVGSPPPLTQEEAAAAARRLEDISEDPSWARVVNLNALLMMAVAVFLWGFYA
Description: as §1, §2

mouse SGLT1 = target: T3, mouse SGLT1 (Mus musculus, UniProt Q8C3K6); experiment: 14C-AMG uptake assay, mouse SGLT1 in CHO-K1 cells; assay type: cell-based; conditions: sodium-dependent 14C-AMG uptake, n = 5
T3 sequence (Q8C3K6 1-665): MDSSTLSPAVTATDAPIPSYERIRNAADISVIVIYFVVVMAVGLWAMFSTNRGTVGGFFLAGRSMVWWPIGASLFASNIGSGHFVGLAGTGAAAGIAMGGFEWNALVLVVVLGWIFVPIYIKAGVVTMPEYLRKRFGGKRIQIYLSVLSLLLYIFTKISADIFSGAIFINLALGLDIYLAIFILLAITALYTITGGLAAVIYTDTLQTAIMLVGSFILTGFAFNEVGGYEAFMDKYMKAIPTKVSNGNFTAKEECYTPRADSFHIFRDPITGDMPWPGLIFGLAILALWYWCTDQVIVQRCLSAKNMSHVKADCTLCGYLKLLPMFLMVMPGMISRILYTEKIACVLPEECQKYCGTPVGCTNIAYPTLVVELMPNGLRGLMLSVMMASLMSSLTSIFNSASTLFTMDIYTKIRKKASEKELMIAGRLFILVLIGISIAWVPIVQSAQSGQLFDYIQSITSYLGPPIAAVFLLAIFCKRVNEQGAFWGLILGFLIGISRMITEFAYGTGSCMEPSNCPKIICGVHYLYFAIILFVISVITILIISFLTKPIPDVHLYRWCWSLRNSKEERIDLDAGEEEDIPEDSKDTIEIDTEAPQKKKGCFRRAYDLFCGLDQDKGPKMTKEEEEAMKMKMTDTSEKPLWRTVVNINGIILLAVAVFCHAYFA
Description: as §1, §2

C57Bl/6 mice = experiment: Glucose lowering effects in oral glucose tolerance test (OGTT); assay type: in vivo, mouse; conditions: for Glucose, 20 Minute / Glucose, 40 Minute / Glucose, 60 Minute / Glucose, 120 Minute / Glucose, 0 Minute / Baseline Adjusted AUC (glucose) / Glucose Cmax / Glucose Tmax: 10 mg/kg oral, mean ± SE; for Glucose, 20 Minute: 20 min after dextrose 3 g/kg; for Glucose, 40 Minute: 40 min after dextrose 3 g/kg; for Glucose, 60 Minute: 60 min after dextrose 3 g/kg; for Glucose, 120 Minute: 120 min after dextrose 3 g/kg; for Glucose, 0 Minute: baseline before dextrose 3 g/kg
Experimental: The test compound is formulated by adding a vehicle of 1% hydroxyethylcellulose, 0.25% Tween® 80 w/antifoam 0.05% to preweighed test compound to make a 1 mg/ml solution. The mixture is probe sonicated for approximately 1 minute. A stir bar is added, and the resulting suspension is stirred continuously throughout dosing.
Single housed C57Bl/6 mice are weighed and body weights used to determine study groups (n=5), within a working range of 26-30 g. After grouping, all mice are fasted overnight by removing access to food, late afternoon before test day. At the same time, two groups of mice are orally gavaged with 10 ml/kg test compound preparation or vehicle. Animals are dosed thirty seconds apart. […] The following morning, the remaining mice are weighed and orally gavaged using the same protocol as the previous day.
At five, eight and eighteen hours after each respective compound treatment is started, a baseline blood sample is taken for measuring glucose (from the first animal, via tail snip). The animal is then immediately given an oral dose of 50% dextrose (Hospira®) at 3 g/kg. Blood samples are taken for glucose, exactly thirty seconds apart, by tail vein so that blood is collected in each animal at 20, 40, 60 and 120 minutes after the dextrose dose.

IC50 (human SGLT1; sodium-dependent 14C-AMG uptake, CHO-K1 cells, n = 5): 0.0173 ± 0.0162 µM | IC50 (human SGLT2): 0.171 ± 0.026 µM | IC50 (mouse SGLT1): 0.0073 ± 0.0029 µM
SMILES: Cc1cc(/C=C/CCN2CCCC3(CCN(C(=O)CNC(=O)NCC(C)C)CC3)C2)ccc1Cc1c(O[C@@H]2O[C@H](CO)[C@@H](O)[C@H](O)[C@H]2O)n[nH]c1C(C)C [Example 1, 1-(2-{2-[(3E)-4-(4-{[3-(beta-D-glucopyranosyloxy)-5-(propan-2-yl)-1H-pyrazol-4-yl]methyl}-3-methylphenyl)but-3-en-1-yl]-2,9-diazaspiro[5.5]undec-9-yl}-2-oxoethyl)-3-(2-methylpropyl)urea]
Potency at SGLT1 relative to human SGLT2 (in words) (human SGLT1; in vitro, human and mouse SGLT1 vs human SGLT2): more potent at human and mouse SGLT1 than at human SGLT2 | Glucose, 20 Minute (C57Bl/6 mice; OGTT @ 5 hr post dose): 124.7 ± 7.66 mg/dL | Glucose, 40 Minute (C57Bl/6 mice; OGTT @ 5 hr post dose): 139.2 ± 7.69 mg/dL | Glucose, 60 Minute (C57Bl/6 mice; OGTT @ 5 hr post dose): 133.2 ± 6.24 mg/dL | Glucose, 120 Minute (C57Bl/6 mice; OGTT @ 5 hr post dose): 108.7 ± 4.93 mg/dL | Glucose, 0 Minute (C57Bl/6 mice; OGTT @ 5 hr post dose): 75.9 ± 3.21 mg/dL | Baseline Adjusted AUC (glucose) (C57Bl/6 mice; OGTT @ 5 hr post dose): 2815 ± 194 mg/dL | Glucose Cmax (C57Bl/6 mice; OGTT @ 5 hr post dose): 140.2 ± 7.48 mg/dL | Glucose Tmax (C57Bl/6 mice; OGTT @ 5 hr post dose): 56 ± 16 min | Glucose, 20 Minute (C57Bl/6 mice; OGTT @ 8 hrs post dose): 142.4 ± 7.4 mg/dL | Glucose, 40 Minute (C57Bl/6 mice; OGTT @ 8 hrs post dose): 168.1 ± 8.37 mg/dL | Glucose, 60 Minute (C57Bl/6 mice; OGTT @ 8 hrs post dose): 171.2 ± 10.1 mg/dL | Glucose, 120 Minute (C57Bl/6 mice; OGTT @ 8 hrs post dose): 113.6 ± 4.25 mg/dL | Glucose, 0 Minute (C57Bl/6 mice; OGTT @ 8 hrs post dose): 75.5 ± 4.42 mg/dL | Baseline Adjusted AUC (glucose) (C57Bl/6 mice; OGTT @ 8 hrs post dose): 4147 ± 456 mg/dL | Glucose Cmax (C57Bl/6 mice; OGTT @ 8 hrs post dose): 175.1 ± 9.3 mg/dL | Glucose Tmax (C57Bl/6 mice; OGTT @ 8 hrs post dose): 52 ± 4.9 min | Glucose, 20 Minute (C57Bl/6 mice; OGTT @ 18 hrs post dose): 196.0 ± 16.6 mg/dL | Glucose, 40 Minute (C57Bl/6 mice; OGTT @ 18 hrs post dose): 216.1 ± 15.0 mg/dL | Glucose, 60 Minute (C57Bl/6 mice; OGTT @ 18 hrs post dose): 188.7 ± 13.8 mg/dL | Glucose, 120 Minute (C57Bl/6 mice; OGTT @ 18 hrs post dose): 110.3 ± 5.74 mg/dL | Glucose, 0 Minute (C57Bl/6 mice; OGTT @ 18 hrs post dose): 78.7 ± 8.81 mg/dL | Baseline Adjusted AUC (glucose) (C57Bl/6 mice; OGTT @ 18 hrs post dose): 6194 ± 406 mg/dL | Glucose Cmax (C57Bl/6 mice; OGTT @ 18 hrs post dose): 216.1 ± 15.0 mg/dL | Glucose Tmax (C57Bl/6 mice; OGTT @ 18 hrs post dose): 44 ± 4.0 min | Average maximum concentration of plasma glucose (Cmax) (in words) (C57Bl/6 mice; during all three OGTTs): decreases | Average time for glucose to reach maximum concentration (Tmax) (in words) (C57Bl/6 mice; during all three OGTTs): increasing | Baseline adjusted glucose AUC (in words) (C57Bl/6 mice; during all three OGTTs): dose dependent decrease | Glucose excursion after oral bolus of 50% dextrose (in words) (C57Bl/6 mice; normal glycemic C57Bl/6 mouse, five, eight or eighteen hours after administration): decrease in the glucose excursion
